# Test results from US8846947B2, “Benzimidazoles and related analogs as sirtuin modulators” (GlaxoSmithKline LLC, priority 2008, dated 2014).
# Target: T1, SIRT1 (Homo sapiens, UniProt Q96EB6)
# T1 sequence (Q96EB6 1-747): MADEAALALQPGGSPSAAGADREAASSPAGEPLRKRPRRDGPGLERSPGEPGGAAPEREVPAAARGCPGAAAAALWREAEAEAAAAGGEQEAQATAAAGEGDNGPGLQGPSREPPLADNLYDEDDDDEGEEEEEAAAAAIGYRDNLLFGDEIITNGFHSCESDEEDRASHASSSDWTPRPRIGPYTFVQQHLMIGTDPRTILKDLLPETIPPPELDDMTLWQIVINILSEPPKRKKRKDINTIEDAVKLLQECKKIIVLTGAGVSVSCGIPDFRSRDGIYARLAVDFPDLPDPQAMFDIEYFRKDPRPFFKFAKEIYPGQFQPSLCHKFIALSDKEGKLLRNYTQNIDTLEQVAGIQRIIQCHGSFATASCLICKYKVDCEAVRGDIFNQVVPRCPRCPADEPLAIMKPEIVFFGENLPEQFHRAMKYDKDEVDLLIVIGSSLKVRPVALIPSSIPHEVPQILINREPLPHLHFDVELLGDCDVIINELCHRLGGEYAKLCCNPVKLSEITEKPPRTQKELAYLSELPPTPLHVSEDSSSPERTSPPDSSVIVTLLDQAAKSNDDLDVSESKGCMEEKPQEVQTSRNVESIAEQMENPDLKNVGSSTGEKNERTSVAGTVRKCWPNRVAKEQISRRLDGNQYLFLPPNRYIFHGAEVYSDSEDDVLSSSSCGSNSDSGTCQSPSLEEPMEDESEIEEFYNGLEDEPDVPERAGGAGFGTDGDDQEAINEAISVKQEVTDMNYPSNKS
# Assay: Mass spectrometry based SIRT1 deacetylase activation assay (acetylated p53-derived peptide substrate)
# Format: biochemical
# Settings: 0.5 μM peptide substrate, 120 μM βNAD+, 10 nM SIRT1, 25 min at 25° C.; for EC1.5: read-out: EC1.5
Structure (SMILES),Fold Act. (percent maximum fold activation),EC1.5
O=C(Nc1nccs1)c1cccc2[nH]c(-c3ccc(N4CCOCC4)cc3C(F)(F)F)nc12 [Compound 414],A (Fold activation >200%),< 1000 nM
O=C(Nc1ccccn1)c1cccc2[nH]c(-c3ccc(N4CCOCC4)cc3C(F)(F)F)nc12 [Compound 415],A (Fold activation >200%),< 1000 nM
O=C(Nc1cccc2[nH]c(-c3ccc(Cl)cc3C(F)(F)F)nc12)c1cscn1 [Compound 416],B (Fold Activation <200%),1000 to 25000 nM
O=C(Nc1cccc2[nH]c(-c3ccc(Cl)cc3C(F)(F)F)nc12)c1ccccn1 [Compound 417],A (Fold activation >200%),1000 to 25000 nM
O=C(Nc1cccc2[nH]c(-c3ccc(Cl)cc3C(F)(F)F)nc12)c1cccnc1 [Compound 418],A (Fold activation >200%),1000 to 25000 nM
O=C(Nc1cccc2[nH]c(-c3ccc(Cl)cc3C(F)(F)F)nc12)c1cnccn1 [Compound 419],A (Fold activation >200%),1000 to 25000 nM
O=C(NCc1ccccn1)c1cccc2[nH]c(-c3ccccc3C(F)(F)F)nc12 [Compound 420],A (Fold activation >200%),1000 to 25000 nM
O=C(NC1CCOCC1)c1cccc2[nH]c(-c3ccccc3C(F)(F)F)nc12 [Compound 421],B (Fold Activation <200%),> 25000 nM
Cc1cc(C)nc(NC(=O)c2cccc3[nH]c(-c4ccnn4-c4ccccc4)nc23)c1 [Compound 422],A (Fold activation >200%),< 1000 nM
Cc1cc(NC(=O)c2cccc3[nH]c(-c4ccnn4-c4ccccc4)nc23)n(C)n1 [Compound 423],A (Fold activation >200%),1000 to 25000 nM
O=C1COc2ccc(-c3nc4c(C(=O)Nc5nccs5)cccc4[nH]3)cc2N1 [Compound 424],B (Fold Activation <200%),< 1000 nM
CCCN1CCCc2ccc(-c3nc4c(C(=O)Nc5nccs5)cccc4[nH]3)cc21 [Compound 425],A (Fold activation >200%),1000 to 25000 nM
O=C(Nc1nccs1)c1cccc2[nH]c(-c3cccc(OC4CCNCC4)c3)nc12 [Compound 426],A (Fold activation >200%),< 1000 nM
O=C(Nc1nccs1)c1cccc2[nH]c(-c3cccc4c3OC(F)(F)O4)nc12 [Compound 427],A (Fold activation >200%),< 1000 nM
"O=C(Nc1nccs1)c1cccc2[nH]c(-c3ccccc3OC3CCNCC3)nc12 [Compound 428, 2-(2-(piperidin-4-yloxy)phenyl)-N-(thiazol-2-yl)-1H-benzo[d]imidazole-4-carboxamide]",A (Fold activation >200%),< 1000 nM
O=C(Nc1ccccn1)c1cccc2[nH]c(-c3cc(Cl)ccc3C(F)(F)F)nc12 [Compound 429],B (Fold Activation <200%),> 25000 nM
"O=C(Nc1cccnc1)c1cccc2[nH]c(-c3ccc(N4CCOCC4)cc3C(F)(F)F)nc12 [Compound 430, 2-(4-morpholino-2-(trifluoromethyl)phenyl)-N-(pyridin-3-yl)-1H-benzo[d]imidazole-4-carboxamide]",A (Fold activation >200%),< 1000 nM
O=C(NC1CCNCC1)c1cccc2[nH]c(-c3ccccc3C(F)(F)F)nc12 [Compound 431],B (Fold Activation <200%),> 25000 nM
O=C(Nc1cccnn1)c1cccc2[nH]c(-c3ccc(Cl)cc3C(F)(F)F)nc12 [Compound 432],A (Fold activation >200%),< 1000 nM
O=C(NCc1ccccn1)c1cccc2[nH]c(-c3ccc(Cl)cc3C(F)(F)F)nc12 [Compound 433],B (Fold Activation <200%),1000 to 25000 nM
O=C(NC1CCOCC1)c1cccc2[nH]c(-c3ccc(Cl)cc3C(F)(F)F)nc12 [Compound 434],B (Fold Activation <200%),1000 to 25000 nM
O=C(NCc1ccccn1)c1cccc2[nH]c(-c3ccc(F)cc3C(F)(F)F)nc12 [Compound 435],B (Fold Activation <200%),1000 to 25000 nM
O=C(NC1CCOCC1)c1cccc2[nH]c(-c3ccc(F)cc3C(F)(F)F)nc12 [Compound 436],B (Fold Activation <200%),1000 to 25000 nM

Structure (SMILES),Fold Act. (percent maximum fold activation),EC1.5
O=C(NC1CCOCC1)c1cccc2[nH]c(-c3cc(F)ccc3C(F)(F)F)nc12 [Compound 437],B (Fold Activation <200%),> 25000 nM
O=C(NC1CCNCC1)c1cccc2[nH]c(-c3cc(F)ccc3C(F)(F)F)nc12 [Compound 438],B (Fold Activation <200%),> 25000 nM
CN1CCOc2cc(-c3nc4c(C(=O)Nc5ccccn5)cccc4[nH]3)cnc21 [Compound 439],B (Fold Activation <200%),> 25000 nM
Cc1cnc(NC(=O)c2cccc3[nH]c(-c4cnc5c(c4)OCCN5C)nc23)s1 [Compound 440],A (Fold activation >200%),< 1000 nM
O=C(Nc1nccs1)c1cccc2[nH]c(-c3ccc(OC4CCNC4)cc3)nc12 (stereo not drawn) [Compound 441],A (Fold activation >200%),< 1000 nM
O=C(Nc1ccccn1)c1cccc2[nH]c(-c3ccc(OC4CCNC4)cc3)nc12 (stereo not drawn) [Compound 442],A (Fold activation >200%),< 1000 nM
O=C(NC1CCOC1=O)c1cccc2[nH]c(-c3ccnn3-c3ccccc3)nc12 (stereo not drawn) [Compound 443],B (Fold Activation <200%),> 25000 nM
CCCN1CCc2cc(-c3nc4c(C(=O)Nc5nccs5)cccc4[nH]3)ccc21 [Compound 444],B (Fold Activation <200%),> 25000 nM
CC1(C)Cc2cc(-c3nc4c(C(=O)Nc5nccs5)cccc4[nH]3)ccc2O1 [Compound 445],A (Fold activation >200%),1000 to 25000 nM
O=C(Nc1nccs1)c1cccc2[nH]c(-c3ccnc(N4CCCC4)c3)nc12 [Compound 446],B (Fold Activation <200%),< 1000 nM
O=C(Nc1nccs1)c1cccc2[nH]c(-c3ccc(OC4CCNCC4)cc3)nc12 [Compound 447],A (Fold activation >200%),< 1000 nM
O=C(Nc1nccs1)c1cccc2[nH]c(-c3cc(N4CCOCC4)ccc3C(F)(F)F)nc12 [Compound 448],A (Fold activation >200%),< 1000 nM
O=C(Nc1ccccn1)c1cccc2[nH]c(-c3cc(N4CCOCC4)ccc3C(F)(F)F)nc12 [Compound 449],A (Fold activation >200%),< 1000 nM
"O=C(Nc1cccnc1)c1cccc2[nH]c(-c3cc(N4CCOCC4)ccc3C(F)(F)F)nc12 [Compound 450, 2-(5-morpholino-2-(trifluoromethyl)phenyl)-N-(pyridin-3-yl)-1H-benzo[d]imidazole-4-carboxamide]",A (Fold activation >200%),< 1000 nM
O=C(Nc1cccnn1)c1cccc2[nH]c(-c3ccccc3C(F)(F)F)nc12 [Compound 451],A (Fold activation >200%),< 1000 nM
Cc1cc(NC(=O)c2cccc3[nH]c(-c4ccc(Cl)cc4C(F)(F)F)nc23)no1 [Compound 452],A (Fold activation >200%),< 1000 nM
O=C(NC1CCNCC1)c1cccc2[nH]c(-c3ccc(Cl)cc3C(F)(F)F)nc12 [Compound 453],B (Fold Activation <200%),> 25000 nM
O=C(NC1CCNCC1)c1cccc2[nH]c(-c3ccc(F)cc3C(F)(F)F)nc12 [Compound 454],B (Fold Activation <200%),> 25000 nM
Cc1cc(NC(=O)c2cccc3[nH]c(-c4cc(F)ccc4C(F)(F)F)nc23)no1 [Compound 455],A (Fold activation >200%),< 1000 nM
O=C(Nc1cccnn1)c1cccc2[nH]c(-c3cc(F)ccc3C(F)(F)F)nc12 [Compound 456],A (Fold activation >200%),< 1000 nM
CN1CCOc2cc(-c3nc4c(C(=O)Nc5cccnn5)cccc4[nH]3)cnc21 [Compound 457],A (Fold activation >200%),< 1000 nM
Cc1nc(NC(=O)c2cccc3[nH]c(-c4cnc5c(c4)OCCN5C)nc23)sc1C [Compound 458],A (Fold activation >200%),< 1000 nM
